PMC8881063 (Journal of Enzyme Inhibition and Medicinal Chemistry, 2022)
Entries after “also recorded” stand apart in the source; their conditions may differ.

Assays:
MAO-B [1] = biological target: T1, MAO-B (Homo sapiens, UniProt P27338); experiment: hMAO-B inhibition, spectrophotometric assay; details: for inhibition at 10 µM: read-out: MAO-B % Inhibition, single dose concentration of 10 µM; for Selectivity index for inhibition of MAO-B: IC50 MAO-A divided by IC50 MAO-B
T1 sequence (P27338 1-520): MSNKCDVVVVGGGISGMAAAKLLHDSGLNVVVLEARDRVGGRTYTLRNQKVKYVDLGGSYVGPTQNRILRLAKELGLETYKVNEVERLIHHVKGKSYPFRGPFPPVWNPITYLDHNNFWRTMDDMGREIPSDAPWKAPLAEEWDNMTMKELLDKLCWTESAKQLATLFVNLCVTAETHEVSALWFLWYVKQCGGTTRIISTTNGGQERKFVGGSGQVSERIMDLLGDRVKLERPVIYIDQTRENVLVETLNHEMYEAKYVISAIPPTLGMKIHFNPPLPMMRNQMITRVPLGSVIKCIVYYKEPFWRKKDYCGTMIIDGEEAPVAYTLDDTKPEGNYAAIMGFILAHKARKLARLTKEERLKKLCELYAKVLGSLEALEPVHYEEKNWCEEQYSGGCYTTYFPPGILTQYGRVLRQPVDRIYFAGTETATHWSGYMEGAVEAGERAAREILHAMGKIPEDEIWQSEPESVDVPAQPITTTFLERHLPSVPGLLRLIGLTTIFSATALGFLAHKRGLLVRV
Protocol: The inhibitory activities of the compounds against hMAO-A and hMAO-B enzymes were evaluated referring to a previously described method (Supporting information)[49].

recombinant human MAO-A = biological target: T2, recombinant human MAO-A (Homo sapiens, UniProt P21397); experiment: hMAO-A inhibition, spectrophotometric assay; type: biochemical; details: for inhibition at 10 µM: single dose concentration of 10 µM
T2 sequence (P21397 1-527): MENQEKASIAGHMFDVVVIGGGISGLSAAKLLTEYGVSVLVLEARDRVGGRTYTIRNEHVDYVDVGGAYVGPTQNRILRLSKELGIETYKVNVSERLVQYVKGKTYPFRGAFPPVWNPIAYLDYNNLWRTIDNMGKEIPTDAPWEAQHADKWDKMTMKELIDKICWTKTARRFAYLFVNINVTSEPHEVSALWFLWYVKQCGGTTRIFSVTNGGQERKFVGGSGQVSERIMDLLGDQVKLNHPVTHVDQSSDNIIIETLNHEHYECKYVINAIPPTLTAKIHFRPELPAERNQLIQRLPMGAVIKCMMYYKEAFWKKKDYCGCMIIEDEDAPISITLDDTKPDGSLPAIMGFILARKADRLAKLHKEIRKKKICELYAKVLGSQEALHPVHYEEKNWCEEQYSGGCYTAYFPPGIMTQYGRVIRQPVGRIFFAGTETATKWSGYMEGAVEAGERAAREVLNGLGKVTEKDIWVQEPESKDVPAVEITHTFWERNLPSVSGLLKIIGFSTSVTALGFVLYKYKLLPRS
Source text: Two different MAO isoforms are known.

[2] = test system: LPS-treated BV2 cells (NO production); experiment: LPS-induced production of nitric oxide in BV2 cells; type: cell-based; details: different concentrations, Figure 3(A)
Protocol: (§1) Neuroinflammation is a crucial component in neurodegenerative diseases. Chronic activation of microglia, which are the brain-resident form of macrophages, results in sustained production of several proinflammatory mediators including glial NO, PGE2, and others molecules that are implicated in multiple neurodegenerative diseases. […] In this regard, LPS-treated BV2 cells were incubated with or without different concentrations of each compound. […] Based on collective results of antineuroinflammatory activity evaluation, in conjugation with above-conducted MAO inhibitions’ assays, compound 1p might be claimed as a promising lead compound eliciting polypharmacological effects combining inhibition of neuroinflammation and MAO-B activity; both processes are crucial components of neurodegenerative diseases such as PD.
(§2) The abilities of compounds to inhibit the induced production of NO and PGE2 were assessed by well-known protocol as indicated in the Supporting information.

[3] = test system: LPS-treated BV2 cells (PGE2 production); experiment: LPS-induced production of PGE2 in BV2 cells; type: cell-based; details: different concentrations, Figure 3(B)
Protocol: as §1, §2

BV2 cells = experiment: BV2 cell viability, WST-1 assay; type: cell-based; details: doses of 1, 10, 30 and 50 µM
Source text: Promising antineurodegenrative candidate molecules should not impair viability of CNS cells. Microglia are critical cells within CNS involved in microglia–neuron communications and are responsible for maintenance of brain integrity and health[61]^,[62]. However, under neuroinflammatory conditions, aberrant activation of microglia contributes to neurodegeneration and disease progression. In this regard, suppression of the abnormal activation while maintenance of viability of microglia is important considerations. […] The viability assay was carried out using the water-soluble tetrazolium reagent WST-1 which eliminates the formazan dissolution step requested in case of MTT[65] employing multiple doses of 1, 10, 30, and 50 µM. […] In lieu of this, it might be inferred that these compounds showing effective inhibition of MAO-B activity and triggering no impairment of microglia viability are good candidates might be advanced for further evaluation towards the development of multifunctional molecules for neurodegenerative diseases such as PD.
The impact of the compounds on the viability of cells was performed by the well-known WST-1 assay method as described in the Supporting information.

MAO-B [4] = biological target: T1, MAO-B; experiment: MAO-B inhibition kinetic study (Michaelis–Menten, Lineweaver–Burk); type: biochemical
Protocol: (§3) To get insights into MAO-B inhibition reaction by compounds 1p and 1y, a kinetic study and reversibility testing were conducted. As illustrated in Figure 4(A,B), Michaelis–Menten graphs were constructed using different concentrations of compounds 1p and 1y employing different concentrations benzylamine as a substrate.
(§4) Kinetics of the inhibition of MAO-B and testing of reversibility were conducted according to literature-reported protocols[59] as indicated in the Supporting information.

MAO-B [5] = biological target: T1, MAO-B; experiment: MAO-B inhibition reversibility testing (washing); type: biochemical; details: enzymatic activity after washing
Protocol: as §3, §4

Structure (SMILES) | IC50 (MAO-B [1]) | inhibition at 10 µM (MAO-B [1]) | IC50 (recombinant human MAO-A) | inhibition at 10 µM (recombinant human MAO-A) | Selectivity index for inhibition of MAO-B (MAO-B [1]) | Ki (MAO-B [4]; benzylamine as substrate) | Reversibility of MAO-B inhibition (MAO-B [5]) | Effect on LPS-induced NO production by BV2 cells [2] | Effect on LPS-induced PGE2 production by BV2 cells [3] | Impact on viability of BV2 cells (BV2 cells) | Type of MAO-B inhibition (MAO-B [4]; Lineweaver–Burk plots)
COc1ccccc1/C=C1\Oc2cc(O)ccc2C1=O [Compound 1i] | 1.84 µM | 75.5% | > 100 µM | 5.49% | >54 | – | – | – | – | – | –
O=C1/C(=C/c2ccc(O)cc2)Oc2cc(O)ccc21 [Hispidol, hispidol, reference compound] | – | – | 5.28 µM | 69.3% | – | – | – | significant inhibition of NO production | effectively suppressed the induced-PGE2 production | cytotoxic effects | –
COc1ccc(OC)c(/C=C2\Oc3cc(O)ccc3C2=O)c1 [Compound 1m] | > 10 µM | 46.3% | > 10 µM | -0.29% | – | – | – | – | – | – | –
COc1cccc(/C=C2\Oc3cc(OC)ccc3C2=O)c1 [Compound 1y] | 0.201 µM | 99.2% | > 100 µM | 3.26% | >496 | 0.0291 µM | washing restored the enzymatic activity | – | – | none of the tested concentrations | competitive inhibitors; also recorded: Competitive inhibition
COc1ccc2c(c1)O/C(=C\c1ccccc1O)C2=O [Compound 1r] | > 10 µM | 22.5% | > 10 µM | 2.29% | – | – | – | – | – | – | –
COc1ccc2c(c1)O/C(=C\c1ccc(O)cc1O)C2=O [Compound 1v] | 6.04 µM | 66.7% | 8.2 µM | 55.7% | – | – | – | – | – | – | –
COc1ccc(/C=C2\Oc3cc(O)ccc3C2=O)cc1 [Compound 1k] | 0.365 µM | 94.6% | 6.98 µM | 53% | – | – | – | – | – | – | –
O=C1/C(=C/c2cccc(O)c2)Oc2cc(O)ccc21 [Compound 1b] | > 10 µM | 13.6% | > 10 µM | 16.6% | – | – | – | – | – | – | –
COc1cc(/C=C2\Oc3cc(O)ccc3C2=O)cc(OC)c1 [Compound 1o] | > 10 µM | 41.2% | > 10 µM | 0.37% | – | – | – | – | – | – | –
COc1ccc(/C=C2\Oc3cc(O)ccc3C2=O)cc1OC [Compound 1n] | > 10 µM | 42.6% | > 10 µM | 4.52% | – | – | – | – | – | – | –
COc1ccc2c(c1)O/C(=C\c1cccc(O)c1)C2=O [Compound 1s] | > 10 µM | 48.9% | > 10 µM | 7.73% | – | – | – | – | – | – | –
O=C1/C(=C/c2ccccc2O)Oc2cc(O)ccc21 [Compound 1a] | > 10 µM | < 50% | > 10 µM | 9.02% | – | – | – | – | – | – | –
COc1ccc2c(c1)O/C(=C\c1ccc(O)cc1)C2=O [Compound 1t] | 1.33 µM | 89.6% | > 100 µM | 8.54% | >75 | – | – | – | – | – | –
O=C1/C(=C/c2cc(O)ccc2O)Oc2cc(O)ccc21 [Compound 1f] | 3.52 µM | 61.4% | 7.77 µM | 53.3% | 2.21 | – | – | – | – | – | –
C[C@H](NCc1ccc(OCc2cccc(F)c2)cc1)C(N)=O [Safinamide, safinamide, reference compound] | – | – | – | – | – | – | – | significant inhibition of NO production | undesirable dose-dependent increase in PGE2 production | cytotoxic effects | –
O=C1/C(=C/c2cc(O)c(O)c(O)c2)Oc2cc(O)ccc21 [Compound 1h] | > 10 µM | 47.5% | > 10 µM | 49.5% | – | – | – | – | – | – | –

Second part, led by results:

IC50 (MAO-B [1]) | inhibition at 10 µM (MAO-B [1]) | IC50 (recombinant human MAO-A) | inhibition at 10 µM (recombinant human MAO-A) | Selectivity index for inhibition of MAO-B (MAO-B [1]) | Ki (MAO-B [4]; benzylamine as substrate) | Reversibility of MAO-B inhibition (MAO-B [5]) | Structure (SMILES) | Effect on LPS-induced NO production by BV2 cells [2] | Effect on LPS-induced PGE2 production by BV2 cells [3] | Impact on viability of BV2 cells (BV2 cells) | Type of MAO-B inhibition (MAO-B [4]; Lineweaver–Burk plots)
2.41 µM | 70.5% | 5.62 µM | 60.8% | – | – | – | COc1ccc2c(c1)O/C(=C\c1ccc(O)c(O)c1)C2=O [Compound 1w] | – | – | – | –
3.52 µM | 70.8% | > 100 µM | -2.21% | >28 | – | – | COc1cccc(/C=C2\Oc3cc(O)ccc3C2=O)c1OC [Compound 1l] | – | – | – | –
2.41 µM | 73.2% | > 100 µM | 7.43% | >41 | – | – | COc1cccc(/C=C2\Oc3cc(O)ccc3C2=O)c1 [Compound 1j] | – | – | – | –
0.593 µM | 89.5% | > 100 µM | 21.6% | >168 | – | – | COc1ccc2c(c1)O/C(=C\c1ccccc1OC)C2=O [Compound 1x] | – | – | none of the tested concentrations | –
0.593 µM | 89% | > 100 µM | 24.5% | >168 | – | – | COCOc1ccc(/C=C2\Oc3cc(O)ccc3C2=O)cc1 [Compound 1q] | – | – | none of the tested concentrations | –
2.41 µM | 65% | 7.04 µM | 52.8% | – | – | – | COc1ccc2c(c1)O/C(=C\c1cccc(O)c1O)C2=O [Compound 1u, (Z)-2–(2,3-Dihydroxybenzylidene)-6-methoxybenzofuran-3(2H)-one] | – | – | – | –
> 10 µM | 12.8% | > 10 µM | 35.7% | – | – | – | O=C1/C(=C/c2cc(O)cc(O)c2)Oc2cc(O)ccc21 [Compound 1g, (Z)-2–(3,5-Dihydroxybenzylidene)-6-hydroxybenzofuran-3(2H)-one] | – | – | – | –
2.41 µM | 61.8% | 4.66 µM | 64.9% | 1.93 | – | – | O=C1/C(=C/c2ccc(O)c(O)c2)Oc2cc(O)ccc21 [Compound 1e] | – | – | – | –
3 µM | 58.9% | > 10 µM | 46.2% | >3.34 | – | – | O=C1/C(=C/c2cccc(O)c2O)Oc2cc(O)ccc21 [Compound 1c, (Z)-2–(2,3-Dihydroxybenzylidene)-6-hydroxybenzofuran-3(2H)-one] | – | – | – | –
> 10 µM | 48.3% | > 10 µM | 44.1% | – | – | – | O=C1/C(=C/c2ccc(O)cc2O)Oc2cc(O)ccc21 [Compound 1d] | – | – | – | –
